This is an account of results in patent US20040175378A1, “Selected antibody compositions and methods for binding to aminophospholipids” (Board of Regents, The University of Texas System, priority 2002, published 2004).

The test system of experiment [1] is anionic phospholipids on vascular endothelium. The experiment can be described thus: Localization of 9D2 and annexin V in tumor bearing mice, indirect immunohistochemistry. It is filed as in vivo. Conditions: 50 μg antibody or 100 μg biotinylated annexin V i.v., 60 min. The procedure:
To detect externally-positioned phospholipids, methods were performed essentially as previously described (Example V; Ran et al., 1998). Tumor-bearing SCID mice were injected intravenously with either 50 μg of 9D2 or biotinylated 9D2 antibody or 100 μg of biotinylated annexin V. Sixty min later mice were sacrificed and their blood circulation was exsanguinated and perfused with heparinized saline as previously described (Burrows et al., 1992). All major organs and tumor were harvested and snap-frozen for preparation of cryosections.
Sections were blocked with PBS containing 10% serum. To prevent loss of phospholipids during slide processing, detergents and organic solvents were omitted from blocking and washing buffers. Rat IgM was detected using goat anti rat IgM (μ specific)-HRP conjugate followed by development with carbazole or DAB (Fries et al., 1993). Biotinylated reagents were detected by streptavidin conjugated to HRP.
Tumor sections derived from mice injected with saline or rat IgM of irrelevant specificity served as negative controls. […] No signal was detected under these conditions. The number of positive vessels per high power field was determined at magnification of ×100. At least 10 fields per section were examined and the average percentage of positive vessels was calculated. […]
Structures with localized 9D2 antibody or annexin V were identified as blood vessels by morphological appearance on DAB-stained sections and by co-incident staining with the pan-endothelial cell marker, MECA 32 on serial sections of frozen tissues. Quantification on DAB-stained sections was done by counting vessels stained by MECA 32, 9D2 or annexin V in serial sections of a tumor. […] At least 10 random fields per section (0.317 mm^2/field) were scored in blinded fashion by two independent observers. The mean numbers and standard errors of vessels stained by 9D2, annexin V or MECA 32 were calculated. The mean number of 9D2 or annexin V-positive vessels determined in each tumor type group was compared to the mean number of MECA 32-positive vessels in the same tumor group. […]

Experiment [2] relates to blood vessels of L540 Hodgkin tumors. The experiment can be described thus: Annexin V inhibition of coaguligand-induced thrombosis in vivo. As to conditions: 100 μg Annexin V 2 hours before 40 μg anti-VCAM-1•tTF. The arrangement: species or system SCID mice. The procedure: The ability of Annexin V to inhibit coaguligand-induced thrombosis in vivo was examined in L540 Hodgkin-bearing SCID mice. Tumors were grown in mice and two mice per group (tumor size 0.5 cm in diameter) were injected intravenously via the tail vein with one of the following reagents: a) saline; b) 100 μg of Annexin V; c) 40 μg of anti-VCAM-1•tTF; d) 100 μg of Annexin V followed 2 hours later by 40 μg of anti-VCAM-1•tTF.
Four hours after the last injection mice were anesthetized and perfused with heparinized saline. Tumors were removed, fixed with 4% formalin, paraffin-embedded and stained with hematoxylene-eosin. The number of thrombosed and non-thrombosed blood vessels was counted and the percentage of thrombosis was calculated.

The nature of experiment [3]: Phospholipid specificity ELISA. Conditions: phospholipid-coated plates. It is filed as binding. Here is the method:
The specificity of the antibodies was determined by ELISA using plates coated with the following phospholipids: PS, phosphatidylserine; PE, phosphatidylethanolamine; PI, phosphatidylinositol; PA, phosphatidic acid; PG, phosphatidylglycerol; PC, phosphatidylcholine; CL, cardiolipin; and SM, sphingomyelin.
For orientation: ELISA stands for enzyme-linked immunosorbent assay.

In experiment [4] the test system is vascular endothelium of MDA-MB-231 breast tumors. The experiment is described as follows: Double staining of orthotopic MDA-MB-231 tumors after i.v. biotinylated 9D2 or annexin V. As to conditions: 1 h. Format: in vivo, mice. The procedure:
In further studies, mice bearing MDA-MB-231 tumors (0.3-0.7 cm^3 in volume) were injected intravenously with 50 μg of biotinylated 9D2, control IgM or annexin V (six mice per group). Biotinylated reagents were first incubated with streptavidin-Cy3 conjugate, washed in PBS, then incubated with MECA 32 antibody followed by FITC-tagged anti-rat IgG secondary antibody. Single images, taken with appropriate filters for Cy3 (red) and FITC (green) fluorescence respectively, were captured by digital camera and transferred to a computer. […] The same method was used to analyze tumors from mice injected with control rat IgM or saline. The percentage of vessels with localized 9D2 or annexin V was calculated as follows: mean number of yellow vessels per field divided by mean number of green (total) vessels multiplied by 100.
Double staining studies were also performed in which mice bearing orthotopic MDA-MB-231 breast tumors were injected intravenously with biotinylated 9D2 antibody, biotinylated control IgM or biotinylated annexin V. One hour later, the mice were exsanguinated, and their tumors were removed and frozen sections were cut. The tumor sections were then stained with Cy3-conjugated streptavidin to detect the biotinylated proteins and with FITC-conjugated MECA32 to detect vascular endothelium. […]

In experiment [5] the test system is Factor X. The experiment can be described thus: Chromogenic assay of coaguligand-induced Factor Xa formation on bEnd.3 cells. Conditions: Annexin V 10 μg per ml; cells preincubated with anti-VCAM-1•tTF. It is filed as cell-based. Here is the method:
The ability of Annexin V to affect Factor Xa formation induced by coaguligand was determined by a chromogenic assay. IL-1α-stimulated bEnd.3 cells were incubated with anti-VCAM-•tTF and permeabilized by saponin. Annexin V was added at concentrations ranging from 0.1 to 10 μg/ml and cells were incubated for 30 min. before addition of diluted Proplex T. The amount of Factor Xa generated in the presence or absence of Annexin V was determined. Each treatment was performed in duplicate and repeated at least twice.
Annexin V added to permeabilized cells preincubated with anti-VCAM-1•tTF inhibited the formation of factor Xa in a dose-dependent manner. In the absence of Annexin V, cell-bound coaguligand produced 95 ng of factor Xa per 10,000 cells per 60 min. The addition of increasing amounts of Annexin V (in the μg per ml range) inhibited factor Xa production. At 10 μg per ml, Annexin V inhibited factor Xa production by 58%.

Experiment [6] in a line: ELISA binding to anionic phospholipids in 5 mM EDTA (Ca2+ requirement). Here is the method:
The specificity of the 9D2 antibody binding was validated by using control rat IgM of irrelevant specificity (Pharmingen, San Diego, Calif.). The specificity of annexin V binding to phospholipids, which is Ca^2+-dependent, was determined by diluting the reagent in the DPBS containing 5 mM EDTA. Additional negative controls consisted of washing the plates with the binding buffer containing 0.2% of a detergent Tween 20. This treatment extracts lipids, thus removing the phospholipid that was absorbed to plastic. Neither 9D2 antibody nor annexin V bound to detergent-washed plates.

“Annexin V: natural ligand that binds to anionic phospholipids; commercial biotinylated or recombinant human annexin V”: the “positive vessels of MECA 32-stained vessels per field, mean ± SE” value in experiment [1] (B16 tumor) turned out to be 21.3 ± 6.6%; in experiment [1] (L540cy tumor), 16.7 ± 3.9%; in experiment [1] (MDA-MB-231 tumor), 45.3 ± 5.6%. Also, the “coaguligand-induced intravascular thrombosis and changes in tumor cell morphology” value in experiment [2] is “completely abolished”. In experiment [3], the “Relative Strength of Reactivity on ELISA” value is recorded as “PS = PE = PI = PA > CL > PG”. In experiment [4], the “MECA 32 positive vessels that bound the reagent” value is given as “About 40%”. Also, in experiment [5], the “inhibition of factor Xa production” value was 58%. Besides, in experiment [6], the “binding to anionic phospholipids in the presence of 5 mM EDTA” value is on record as “abolished in the presence of 5 mM EDTA”.
